Laboratory results as given in patent US9452983B2, “Method for refining quinolinic acid” (CJ CHEILJEDANG CORP., priority 2013, dated 2016).

Assay: Evaluation of solubility of quinolinic acid with respect to pH
Assay type: physicochemical
Settings: room temperature (about 23° C.), pH controlled using 28%-ammonia water and 98% sulfuric acid, FIG. 1
Description: Evaluation of solubility of Quinolinic Acid with Respect to pH
Solubility of quinolinic acid in water at room temperature (about 23° C.) with respect to pH was evaluated using a pure quinolinic acid reagent (Sigma-Aldrich Prod. No. P63204), wherein the pH was controlled using a 28%-ammonia water and 98% sulfuric acid).

## O=C(O)c1cccnc1C(=O)O [quinolinic acid]
  Solubility of quinolinic acid in water with respect to pH: the lower the pH, the lower the solubility
